Tests used:
[1] = test system: naïve splenic CD4+ T cells differentiated to Treg or Tr1; test: Treg and Tr1 T cell differentiation, viability, FoxP3 staining and IL-10 ELISA; type: cell-based, mouse
Protocol: Balb/c mice were euthanized and splenic CD4+CD62L+ T cells were magnetically enriched (Miltenyi Biotec) to >95% purity and cultured in DMEM media on plates pre-coated with anti-CD3 and anti-CD28 antibodies (clones 145-2C11 and 37.51; BioXCell). Culture media was supplemented with 10 μg/mL anti-IL-4 (clone 11B11; BioXCell), anti-IL-12 (clone C17.8; BioXCell), and anti-IFNγ (clone XMG1.2; BioXCell) as well as TGFβ (2 ng/mL; PeproTech). HG-9-91-01 (100 nM) or DMSO were added at day 0. Cultures were fed with DMEM+IL-2 (10 ng/mL, Peprotech) containing small molecules at day 2 and analyzed at day 4. Cells were stained with blue LIVE/DEADAqua stain (Invitrogen) to discriminate live cells, fixed with Foxp3 Permeabilization Buffer (eBioscience), stained with FITC anti-CD4 (clone RM4-5, Biolegend) and PE anti-Foxp3 (clone FJK-16S, eBioscience) and acquired on a FACSVerse (BD Biosciences). For Th0 and Tr1 differentiations, C57BL/6 mice were euthanized and splenic CD4+CD62L+ T cells were magnetically enriched (Miltenyi Biotec) to >95% purity and cultured in DMEM media on plates pre-coated with anti-CD3 and anti-CD28 antibodies (clones 145-2C11 and 37.51; BioXCell) in the absence of neutralizing antibodies. For Tr1 differentiations, the culture media was supplement with TGFβ (2 ng/mL; PeproTech) and rIL-27 (25 ng/mL; R&D Systems) as described previously (Gagliani N, et al. (2013) Coexpression of CD49b and LAG-3 identifies human and mouse T regulatory type 1 cells. Nature medicine 19(6):739-746). After 4 days, cells were harvested, washed in PBS and stained with LIVE/DEADGreen to discriminate viable cells and eFluor450 anti-CD4 (BioLegend) and acquired on a FACSVerse (BD Biosciences). Absolute cell numbers were enumerated by adding 5000 […] beads (Spherotech) to each well. Analysis was performed using Flowjo (Treestar) excluding samples were significant toxicity was observed. For all differentiation conditions, IL-10 levels were quantified in the culture media at day 4 by ELISA (BD Biosciences).

[2] = test system: CD11c+ CX3CR1hi myeloid cells and CD11c+ CX3CR1− DCs from the small intestine; test: Cytokine production by lamina propria gut myeloid cells; type: cell-based, mouse; conditions: 0.3 μM, 30 min pre-treatment
Protocol: Bone marrow-derived DCs were differentiated from C57BL/6 bone marrow in the presence of GM-CSF-conditioned media. CD11c^+ CX3CR1^hi myeloid cells and CD11c^+ CX3CR1^− DCs were isolated from the small intestine lamina propria of Cx3cr1^eGFP/+ mice (12). Detection of cell-surface Thy1.1 expression on BMDCs from 10BiT reporter mice was conducted as described previously (24). Cell viability was estimated by change in total cellular ATP levels using CellTiterGlo assays (Promega). Preparation of recombinant SIK proteins and IC50 measurements were conducted as described previously (21). Total RNA was extracted using a NucleoSpin 96 RNA isolation kit (Macherey-Nagel) followed by cDNA synthesis and multiplex RT-PCR using a microfluidic dynamic array (Fluidigm). The concentrations of TNF-α, IL-6, IL-10, IL-12p40, IL-1β and RANTES in culture supernatants were detected using a FlexSet Cytometric bead array (BD Biosciences). Alternatively, IL-10 secretion was quantified using ELISA (BD Biosciences) or AlphaLISA (PerkinElmer) assays. NO production was estimated based on nitrate content in culture medium using the Greiss reagent.
After stimulation of cells with microbial ligands, the culture medium was removed, clarified by centrifugation for 10 min at 14,000×g, and the concentration of TNF-α, IL-6, IL-10, IL-12p40, IL-1β and RANTES were measured using FlexSet Cytokine Bead Array (BD Biosciences) according to the manufacturer's instructions. Where indicated, ELISAs were used to detect IL-10 and IL-12p70 (BD Biosciences) according to the manufacturer's instructions. NO production was estimated based on nitrate content in culture medium using the Greiss reagent as described previously (Miletic A V, et al. (2007) Vav proteins control MyD88-dependent oxidative burst. Blood 109(8):3360-3368).
CX3CR1GFP/+ mice were euthanized and intestines cut into 3-4 pieces before inversion onto polyethylene tubes (Becton Dickinson). Intestinal fragments were washed with calcium- and magnesium-free PBS (Lonza), and mucus was removed with 1 mM DTT. […]

Q: What does the source list for `COc1ccc(N(C(=O)Nc2c(C)cccc2C)c2cc(Nc3ccc(N4CCN(C)CC4)cc3)ncn2)c(OC)c1` [HG-9-91-01]?
A: fraction of Foxp3+ cells and IL-10 secretion of Treg's ([1]; 100 nM, 4 days): did not increase the fraction of Foxp3^+ cells or promote IL-10 secretion; concentrations toxic in Treg's and Tr1 cells ([1]; 4 days differentiation): greater than 0.5 μM; IL-10 secretion by Tr1 cells ([1]; non-toxic concentrations, 4 days): not further enhanced; IL-10 production by CD11c+ CX3CR1hi cells ([2]; LPS or zymosan 18 hr): enhanced IL-10 production; secretion of TNF-α by gut myeloid cell subsets ([2]; both subsets): reduced secretion of TNF-α; production of IL-6 or RANTES by gut myeloid cell subsets ([2]; either subset): not affected

— patent US10265321B2, “Uses of salt-inducible kinase (SIK) inhibitors” (Dana-Farber Cancer Institute, Inc., priority 2014, dated 2019)
